The values below come from patent publication US20230312571A1, “RING-MODIFIED PROLINE SHORT PEPTIDE COMPOUND AND USE THEREOF” (priority 2021, published 2023).

One series deals with SARS-CoV-2 Mpro (Severe acute respiratory syndrome coronavirus 2 (2019-nCoV) (SARS-CoV-2), UniProt P0DTD1). As to the kind of experiment: In vitro anti-novel coronavirus Mpro protease activity (fluorescent substrate cleavage). It is filed as biochemical. As for the experimental part:
The compound was dissolved in DMSO, and diluted in a 3-fold gradient with Echo655 according to the concentration requirements to 10 concentration points, and duplicate tests were set at each concentration, and the diluted solution was added to a 384-well plate. Mpro protein and substrate were diluted with test buffer (100 mM NaCl, 20 mM Tris-HCl, 1 mM EDTA), and Mpro protein was added to the 384-well test plate, incubated with the compound for 30 min at room temperature, and then the substrate was added thereto, and the test concentration of Mpro protein was 25 nM, and the test concentration of substrate was 25 µM. After incubating for 60 minutes in a 30° C. constant temperature incubator, the fluorescence signal value of Ex/Em=340 nm/490 nm was detected by microplate reader. At the same time, the background well containing the substrate and compound but not containing Mpro protein was detected as control.

Another series relates to coronavirus HCoV OC43. As to the kind of experiment: In vitro anti-coronavirus activity by cytopathic model (CPE, CellTiter Glo). It is filed as cell-based. The settings on record: HCoV OC43 100 TCID50/well, MRC5 cells, 5 days. As for the experimental part:
MRC5 cells and coronavirus HCoV OC43 were purchased from ATCC.
MRC5 cells were cultured in MEM (Sigma) medium supplemented with 10% fetal bovine serum (Excell), 1% double antibody (Hyclone), 1%L-glutamine (Gibco) and 1% non-essential amino acids (Gibco). MEM (Sigma) medium supplemented with 5% fetal bovine serum (Excell), 1% double antibody (Hyclone), 1% L-glutamine (Gibco) and 1% non-essential amino acid (Gibco) was used as the experimental culture medium.
Cells were inoculated into a 96 microwell plate at a certain density (Table 6) and cultured overnight in an incubator at 5% CO2 and 37° C. On the second day, the compound was added after doubling dilution (8 concentration points, duplicate wells), with 50 µL per well. Then the diluted virus was added to the cells at 100 TCID50 per well, 50 µL per well. Cell control (cell without compound treatment or virus infection), virus control (cell infected with virus without compound treatment) and culture medium control (only culture medium) were set. The final volume of the culture medium in this experiment was 200 µL, and the final concentration of DMSO in the culture medium was 0.5%. Cells were cultured in a 5% CO2, 33° C. incubator for 5 days. Cell viability was detected using the cell viability assay kit CellTiter Glo (Promega). Cytotoxicity experiments were performed under the same conditions as antiviral experiments, but without virus infection.
The antiviral activity and cytotoxicity of the compound were represented by the inhibition rate (%) and cell viability (%) of the compound on the cytopathic effect caused by the virus at different concentrations, respectively. The calculation formula is as follows: […]
GraphPad Prism was used to perform nonlinear fitting analysis on the inhibition rate and cell viability of the compound, and the half effective concentration (EC50) and half cytotoxic concentration (CC50) of the compound were calculated.

The subject of series [1] is SARS-CoV-2 virus (Novel coronavirus βCoV/KOR/KCDC03/2020 strain). As to the kind of experiment: Anti-novel coronavirus activity in Vero cells (immunofluorescence, high-content imaging). It is filed as cell-based. The settings on record: Severe acute respiratory syndrome coronavirus 2, wild-type novel coronavirus, MOI=0.0125, 24 hours.
A further series in a line: in vitro. The settings on record: African green monkey.
Series [2] is described as follows: Cytotoxicity in the cytopathic model, without virus infection (CellTiter Glo). As to conditions: human.
On the set-up of series [3]: species or system C57BL/6J male mice. As to conditions: mouse, in vivo. The method, then: In this study, C57BL/6J male mice were selected as test animals, and LC/MS/MS method was used to quantitatively measure the plasma concentration of the test compound 11 at different time points after oral administration and injection in mice, so as to evaluate the pharmacokinetic characteristics of the test drug in mice.
The test compound dissolved in 30% PEG400+70% normal saline was administered to mice (overnight fasting, 6-8 weeks old) by intragastric administration. 25 µL of blood was collected at 0.083, 0.25, 0.5, 1, 2, 4, 8, 12 and 24 hours after administration, respectively, and placed in commercial anticoagulation tubes pre-added with EDTA-K2, centrifuged at 4° C., 3200 g for 10 min to obtain plasma, and after the plasma sample was treated, the plasma concentration was determined by LC-MS/MS method.

Details of series [4]: species or system C57BL/6J male mice. As to conditions: mouse, in vivo, po, 10 mg/kg. The method, then: In this study, C57BL/6J male mice were selected as test animals, and the LC/MS/MS method was used to quantitatively measure the plasma concentrations of mice in combination with Ritonavir at different time points, so as to evaluate the pharmacokinetic characteristics of the test drug in mice.
Firstly, 10 mpk of Ritonavir was administered to mice by intragastric administration at -12 h and 0 h, and then the test compound was dissolved in 30% PEG400+70% normal saline solution and administered to mice by intragastric administration (overnight fasting, 6 to 8 weeks old). 25 µL of blood was collected at 0.083, 0.25, 0.5, 1, 2, 4, 8, 12 and 24 hours after administration to animals, placed in a commercial anticoagulant tube pre-added with EDTA-K2, and centrifuged at 4° C., 3200 g for 10 min to obtain plasma. After the plasma samples were treated, the plasma concentration was determined by LC-MS/MS method.

Series [5] in a line: Tissue distribution test in rats (plasma and lung, with Ritonavir). It is filed as in vivo, SD male rats. As to conditions: 30 mpk p.o. with Ritonavir 10 mpk. The method, then: In this study, SD male rats were selected as test animals, and the drug concentrations of test compounds in plasma and lungs of rats at different time points were quantitatively measured by LC/MS/MS method to evaluate the pharmacokinetic characteristics of test drugs in rats.
Firstly, 10 mpk of Ritonavir was administered to rats by intragastric administration at -12 h and 0 h, and 30 mpk of the test compound was dissolved in 10% Solutol + 30% PEG 400 + 2% Tween 80+H2O 58% solution and administered to rats by intragastric administration (overnight fasting). 40 µL of blood was collected from the saphenous vein of rats at 0.25, 1 and 6 hours after administration, placed in an anticoagulant tube added with EDTA-K2, centrifuged at 4° C., 3200 g for 10 min to obtain plasma, and some animals were killed at 0.25, 1 and 6 hours respectively to collect lung tissue. After the plasma samples were treated, the plasma concentration was determined by LC-MS/MS method.

The next series deals with Vero cells. As to conditions: 24 hours.
Setting [6] is: 25 nM Mpro protein, 25 µM substrate, read-out: IC50.

Where two headings read alike, the source gives them in different places.

Take `CC(C)(C)[C@H](NC(=O)C(F)(F)F)C(=O)N1[C@H]2C[C@@H]([C@H]1C(=O)N[C@H](C#N)C[C@@H]1CCNC1=O)C(F)(F)C2` [Compound 6]: on SARS-CoV-2 Mpro, half-maximal inhibition (IC50) was put at 0.135 µM.

With `CC1C[C@@H]2C[C@H]1[C@@H](C(=O)N[C@H](C#N)C[C@@H]1CCNC1=O)N2C(=O)[C@@H](NC(=O)C(F)(F)F)C12CC3CC(CC(C3)C1)C2` (stereo partly shown) [Compound 12], the IC50 at SARS-CoV-2 Mpro (setting [6]) was found to be 0.017 µM.

With `CC(C)(C)[C@H](NC(=O)C(F)(F)F)C(=O)N1[C@H]2C[C@@H]([C@H]1C(=O)N[C@H](C#N)C[C@@H]1CCNC1=O)C(F)(F)C2` [Compound 10], the IC50 at SARS-CoV-2 Mpro (setting [6]) was 0.017 µM.

`N#C[C@H](C[C@@H]1CCNC1=O)NC(=O)[C@@H]1[C@H]2CC[C@H](C2)N1C(=O)[C@@H](NC(=O)C(F)(F)F)C12CCC(CC1)CC2` [Compound 4]: half-maximal inhibition at SARS-CoV-2 Mpro (IC50) was put at 0.053 µM. The half-maximal effective concentration (EC50) was determined as 0.141 µM with coronavirus HCoV OC43 (Betacoronavirus 1, 120 h) and 0.03 µM in series [1]. In addition, the CC50 in the series “in vitro” is > 5 µM. Also, the CC50 at 5 days in [2] was > 10 µM.

Consider `CC(C)(C)[C@H](NC(=O)C(F)(F)F)C(=O)N1[C@H]2C[C@@H]([C@H]1C(=O)N[C@H](C#N)C[C@@H]1CCNC1=O)C1(CC1)C2` [Compound 11], for which the half-inhibitory concentration (IC50) on SARS-CoV-2 Mpro (setting [6]) turned out to be 0.0054 µM. This compound displayed an EC50 in the series on coronavirus HCoV OC43 of 0.0035 µM. Also, in series [3] (iv, 3 mg/kg), the AUC0-last is given as 1447 nM·h, the CL was found to be 4.11 L/h/kg, the T½ came out at 12 min and the distribution volume (Vdss) is reported as 0.9 L/kg. Further, in [3] (po, 10 mg/kg), the AUC0-last amounted to 1519 nM·h, the Cmax worked out at 1.85 µM and the Tmax is 15 min. In series [4], the AUC0-last was determined as 28683 nM·h, the Cmax was found to be 10.1 µM and the Tmax was 30 min. Besides, in [5], the “Ratio lung/plasma of AUC(0-6 h)” value was 2.6/1. Also, the Ratio lung/plasma in series [5] (0.25 h) is recorded as 5.5/1. The Ratio lung/plasma in series [5] (1 h) is reported as 3.2/1. In series [5] (6 h), the Ratio lung/plasma is given as 1.6/1. In addition, the CC50 in the series on MRC5 cells is > 10 µM. Besides, the CC50 in the series with Vero cells was > 5 µM.

`N#C[C@H](C[C@@H]1CCNC1=O)NC(=O)[C@@H]1[C@H]2CC[C@H](C2)N1C(=O)[C@@H](NC(=O)C(F)(F)F)C12CC3CC(CC(C3)C1)C2` [Compound 3]: on SARS-CoV-2 Mpro, the IC50 was determined as 0.021 µM. Further, the EC50 with coronavirus HCoV OC43 (Betacoronavirus 1, 120 h) is 0.062 µM; in series [1], 0.035 µM. The CC50 in the series “in vitro” was > 5 µM. Moreover, in [2], the CC50 at 5 days is > 10 µM.

For the compound `CC1C[C@H]2C[C@@H]1N(C(=O)[C@@H](NC(=O)C(F)(F)F)C(C)(C)C)[C@@H]2C(=O)N[C@H](C#N)C[C@@H]1CCNC1=O` (stereo partly shown) [Compound 5], the EC50 with coronavirus HCoV OC43 (Betacoronavirus 1, 120 h) turned out to be 0.205 µM; in [1], 0.02 µM. Besides, in the series “in vitro”, the CC50 was > 5 µM. Also, the CC50 at 5 days in series [2] is > 10 µM.

In turn, `CC1([C@H](NC(=O)C(F)(F)F)C(=O)N2[C@@H]3CC[C@@H](C3)[C@H]2C(=O)N[C@H](C#N)C[C@@H]2CCNC2=O)CCCCC1` [Compound 7] showed an IC50 against SARS-CoV-2 Mpro of 0.062 µM.

Turning to `Cc1ccc(CC(=O)N[C@H](C(=O)N2[C@@H]3CC[C@@H](C3)[C@H]2C(=O)N[C@H](C#N)C[C@@H]2CCNC2=O)C23CC4CC(CC(C4)C2)C3)cc1` [Compound 13], at SARS-CoV-2 Mpro (setting [6]), the IC50 worked out at 0.075 µM.
